Experimental data taken from paper PMC4893628, “Chalcone-based Selective Inhibitors of a C4 Plant Key Enzyme as Novel Potential Herbicides” (Scientific Reports, 2016).
Where two headings read alike, the source gives them in different places.

How the values were obtained:
[1] = test system: Pseudomonas putida KT2440; experiment: Bacterial growth in microscale cultivation, P. putida; assay type: cell-based; settings: relative to control; for activity at 0.1 µM / activity at 1 µM / activity at 10 µM: Pseudomonas putida
Protocol: (§1) The following bacteria were cultivated in the presence of trans-chalcone derived inhibitors: Corynebacterium glutamicum ATCC13032[43], Escherichia coli K-12 MG1655[44], Pseudomonas putida KT2440[45], and Bacillus subtilis 168[46]. The growth of these bacteria was monitored in flower-well plates shaken at 1200 rpm as backscatter at 620 nm (gain 20) using a BioLector® microscale cultivation system (m2p labs, Baesweiler, Germany). For further experimental details please refer to the Supplementary Information.
(§2) medium or the appropriate minimal medium and shaken at 140 rpm overnight. For inoculation of
(§3) the main culture, cells equivalent to an optical density at 600 nm of 0.5 (C. glutamicum, E. coli,
(§4) and P. putida) or 0.25 (B. subtilis) in 800 µL medium were washed and resuspended in fresh
(§5) media. Inhibitor substances were dissolved in DMSO and added to the media to a final
(§6) Since the least polar trans-chalcone and 2’-hydroxychalcone precipitated in the growth media at
(§7) the highest concentrations, the maximal concentration of these compounds was reduced to 400
(§8) µM and 100 µM, respectively. The final backscatter at 620 nm, the growth rate (h-1), and the
(§9) duration of the lag phase of all cultures were determined in a BioLector microscale cultivation
(§10) system in comparison to negative controls supplemented with the solvent DMSO. A longer lag

[2] = test system: Escherichia coli K-12 MG1655; experiment: Bacterial growth in microscale cultivation, E. coli; assay type: cell-based; settings: relative to control; for activity at 0.1 µM / activity at 1 µM / activity at 10 µM: Escherichia coli
Protocol: as §1, §2, §3, §4, §5, §6, §7, §8, §9, §10

[3] = target: T1, F. trinervia PEPC (Flaveria trinervia, UniProt P30694); experiment: biochemical; assay type: biochemical; settings: C4 PEPC
T1 construct: the full-length ppcA gene of PEPC from F. trinervia (EMBL-Bank X61304); made in house; host or cells: Escherichia coli BL21(DE3)
T1 sequence (P30694 1-966): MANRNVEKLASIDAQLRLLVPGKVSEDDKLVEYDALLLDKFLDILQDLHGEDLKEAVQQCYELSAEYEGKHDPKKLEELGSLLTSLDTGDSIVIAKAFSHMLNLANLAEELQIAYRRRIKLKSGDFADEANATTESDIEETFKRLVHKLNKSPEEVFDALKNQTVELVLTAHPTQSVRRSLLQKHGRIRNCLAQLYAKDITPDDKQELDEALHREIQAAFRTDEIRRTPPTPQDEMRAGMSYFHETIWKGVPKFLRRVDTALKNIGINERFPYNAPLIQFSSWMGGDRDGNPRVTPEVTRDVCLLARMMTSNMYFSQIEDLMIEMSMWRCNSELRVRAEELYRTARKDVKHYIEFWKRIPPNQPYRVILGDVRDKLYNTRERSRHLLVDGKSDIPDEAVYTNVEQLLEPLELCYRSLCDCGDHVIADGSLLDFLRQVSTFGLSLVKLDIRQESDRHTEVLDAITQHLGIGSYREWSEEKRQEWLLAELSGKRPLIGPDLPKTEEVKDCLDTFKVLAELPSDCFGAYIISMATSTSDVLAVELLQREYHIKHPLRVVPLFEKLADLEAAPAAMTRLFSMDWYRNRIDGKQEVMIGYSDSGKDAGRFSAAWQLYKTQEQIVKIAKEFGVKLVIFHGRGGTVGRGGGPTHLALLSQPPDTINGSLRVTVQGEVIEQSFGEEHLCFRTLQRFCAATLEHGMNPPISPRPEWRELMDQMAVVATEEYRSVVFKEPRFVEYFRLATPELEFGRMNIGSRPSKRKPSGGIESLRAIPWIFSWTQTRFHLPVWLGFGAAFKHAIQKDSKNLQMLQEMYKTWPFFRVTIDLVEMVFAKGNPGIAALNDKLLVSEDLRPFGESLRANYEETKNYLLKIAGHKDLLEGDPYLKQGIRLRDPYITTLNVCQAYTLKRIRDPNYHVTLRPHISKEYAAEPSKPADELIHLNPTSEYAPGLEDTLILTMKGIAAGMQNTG
Protocol: The IC50 values of small molecule compounds on F. pringlei and F. trinervia PEPCs were determined using PEPC coupled spectrophotometric assay. The amount of NADH oxidized by NADH-malate dehydrogenase was measured by the decrease in absorbance at 340 nm in a Beckman DU-800 spectrophotometer, thus the value is in proportion to the corresponding substrate conversion of the enzyme. […] The reactions were started by adding two folds of the Km value of PEP for each enzyme. The data were analyzed using GraFit (Erithacus Software, UK).

[4] = test system: Bacillus subtilis 168; experiment: Bacterial growth in microscale cultivation, B. subtilis; assay type: cell-based; settings: relative to control
Protocol: as §1, §2, §3, §4, §5, §6, §7, §8, §9, §10

`O=C(/C=C/c1ccc(O)c(O)c1)c1ccc(O)c(O)c1O` [Compound 12, 2′,3′,4′,3,4-Pentahydroxy-chalcone] was tested, and the activity at 0.1 µM ([1]; KT2440, complex medium, 0.1 µM, read-out: Final Backscatter) was 97.8%, the activity at 0.1 µM ([1]; KT2440, complex medium, 0.1 µM, read-out: Growth rate) was 104% and the activity at 1 µM ([1]; KT2440, complex medium, 1 µM, read-out: Final Backscatter) was 98.2%. It also gave an activity at 1 µM ([1]; KT2440, complex medium, 1 µM, read-out: Growth rate) of 103%, an activity at 10 µM ([1]; KT2440, complex medium, 10 µM, read-out: Final Backscatter) of 98.6% and an activity at 10 µM ([1]; KT2440, complex medium, 10 µM, read-out: Growth rate) of 99.7%. For the same compound, the activity at 0.1 µM ([1]; KT2440, minimal medium, 0.1 µM, read-out: Final Backscatter) was 92.5%, the activity at 0.1 µM ([1]; KT2440, minimal medium, 0.1 µM, read-out: Growth rate) was 105% and the activity at 1 µM ([1]; KT2440, minimal medium, 1 µM, read-out: Final Backscatter) was 93.6%. The activity at 1 µM ([1]; KT2440, minimal medium, 1 µM, read-out: Growth rate) was 104%, the activity at 10 µM ([1]; KT2440, minimal medium, 10 µM, read-out: Final Backscatter) was 99.3% and the activity at 10 µM ([1]; KT2440, minimal medium, 10 µM, read-out: Growth rate) was 100%. The “Lag Phase” value ([1]; complex medium, 0.1 µM) was 103,3%, the “Lag Phase” value ([1]; complex medium, 1 µM) was 103,9% and the “Lag Phase” value ([1]; complex medium, 10 µM) was 105,9%. The “Lag Phase” value ([1]; minimal medium, 0.1 µM) was 108,8%, the “Lag Phase” value ([1]; minimal medium, 1 µM) was 106,1% and the “Lag Phase” value ([1]; minimal medium, 10 µM) was 100,0%. For the same compound, the activity at 0.1 µM ([2]; MG1655, complex medium, 0.1 µM, read-out: Final Backscatter) was 98.5%, the activity at 0.1 µM ([2]; MG1655, complex medium, 0.1 µM, read-out: Growth rate) was 106% and the activity at 1 µM ([2]; MG1655, complex medium, 1 µM, read-out: Final Backscatter) was 100%. For the same compound, the activity at 1 µM ([2]; MG1655, complex medium, 1 µM, read-out: Growth rate) was 100%, the activity at 10 µM ([2]; MG1655, complex medium, 10 µM, read-out: Final Backscatter) was 97.9% and the activity at 10 µM ([2]; MG1655, complex medium, 10 µM, read-out: Growth rate) was 111%. For the same compound, the activity at 0.1 µM ([2]; MG1655, minimal medium, 0.1 µM, read-out: Final Backscatter) was 99.7%, the activity at 0.1 µM ([2]; MG1655, minimal medium, 0.1 µM, read-out: Growth rate) was 99.8% and the activity at 1 µM ([2]; MG1655, minimal medium, 1 µM, read-out: Final Backscatter) was 98.5%. The activity at 1 µM ([2]; MG1655, minimal medium, 1 µM, read-out: Growth rate) was 100%, the activity at 10 µM ([2]; MG1655, minimal medium, 10 µM, read-out: Final Backscatter) was 101% and the activity at 10 µM ([2]; MG1655, minimal medium, 10 µM, read-out: Growth rate) was 104%. The “Lag Phase” value ([2]; complex medium, 0.1 µM) was 108,5%, the “Lag Phase” value ([2]; complex medium, 1 µM) was 102,8% and the “Lag Phase” value ([2]; complex medium, 10 µM) was 111,4%. For the same compound, the “Lag Phase” value ([2]; minimal medium, 0.1 µM) was 99,0%, the “Lag Phase” value ([2]; minimal medium, 1 µM) was 102,0% and the “Lag Phase” value ([2]; minimal medium, 10 µM) was 95,1%. For the same compound, the “lower IC50 value in comparison to 8–11” value [3] was ~ 5 fold, the IC50 ([3]; IC50 F. trinervia PEPC) was 600 ± 100 nM and the activity at 0.1 µM ([4]; Bacillus subtilis, 168, complex medium, 0.1 µM, read-out: Final Backscatter) was 93.5%. It also gave an activity at 0.1 µM ([4]; Bacillus subtilis, 168, complex medium, 0.1 µM, read-out: Growth rate) of 96.7%, an activity at 1 µM ([4]; Bacillus subtilis, 168, complex medium, 1 µM, read-out: Final Backscatter) of 93.9% and an activity at 1 µM ([4]; Bacillus subtilis, 168, complex medium, 1 µM, read-out: Growth rate) of 104%. For the same compound, the activity at 10 µM ([4]; Bacillus subtilis, 168, complex medium, 10 µM, read-out: Final Backscatter) was 90.6%, the activity at 10 µM ([4]; Bacillus subtilis, 168, complex medium, 10 µM, read-out: Growth rate) was 109% and the activity at 0.1 µM ([4]; Bacillus subtilis, 168, minimal medium, 0.1 µM, read-out: Final Backscatter) was 102%. For the same compound, the activity at 0.1 µM ([4]; Bacillus subtilis, 168, minimal medium, 0.1 µM, read-out: Growth rate) was 123%, the activity at 1 µM ([4]; Bacillus subtilis, 168, minimal medium, 1 µM, read-out: Final Backscatter) was 98.6% and the activity at 1 µM ([4]; Bacillus subtilis, 168, minimal medium, 1 µM, read-out: Growth rate) was 113%. The activity at 10 µM ([4]; Bacillus subtilis, 168, minimal medium, 10 µM, read-out: Final Backscatter) was 104%, the activity at 10 µM ([4]; Bacillus subtilis, 168, minimal medium, 10 µM, read-out: Growth rate) was 115% and the “Lag Phase” value ([4]; complex medium, 0.1 µM) was 110,6%. For the same compound, the “Lag Phase” value ([4]; complex medium, 1 µM) was 102,7%, the “Lag Phase” value ([4]; complex medium, 10 µM) was 94,7% and the “Lag Phase” value ([4]; minimal medium, 0.1 µM) was 98,2%. For the same compound, the “Lag Phase” value ([4]; minimal medium, 1 µM) was 100,6% and the “Lag Phase” value ([4]; minimal medium, 10 µM) was 100,0%.
